Test results taken from PubChem BioAssay AID179 (DTP/NCI, 2004).
Values joined by “and” are separate entries in the source; they are usually repeats but may differ in a detail not shown here. Identical values can stand only once. Active and inactive are the calls of the source.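 How the source made its calls: active means compounds giving half or more protection of infected cells from virus-caused growth loss, again on retest; inactive means the rest.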

Test system: CEM cells HIV-1 protection, formazan growth assay
Assay: NCI AIDS Antiviral Assay
Conditions: for IC50: measured here: growth of uninfected CEM cells
Procedure, shortened: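 Protection of CEM cells against HIV-1 was scored from cell growth (soluble formazan) across five concentrations, with parallel uninfected cells. Lack of protection may reflect toxicity.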

| SMILES | EC50 | IC50 | outcome |
| --- | --- | --- | --- |
| O=C1CC(c2ccccc2)C2(C(=O)NC(=S)NC2=O)C(c2ccccc2)C1 (stereo not drawn) | > 75.9 µM | 55 µM | – |
| S=C(SSSSC(=S)N1CCCCC1)N1CCCCC1 | > 10.5 µM | 2.14 µM | – |
| Cc1cn(C(C)OCCO[Si](C)(C)C(C)(C)C)c(=O)[nH]c1=O (stereo not drawn) | > 200 µM | 112 µM | – |
| COc1cccc2c1C(=O)c1ccc3cc(CCl)cc(O)c3c1C2=O | > 200 µM | 0.468 µM | – |
| O=c1[nH]c2nncn2c2ccccc12 | > 200 µM | > 200 µM | – |
| NP(=O)(Nc1ccccc1)Nc1ccccc1 | > 200 µM | > 200 µM | – |
| CCCCCC=C(c1cc(Br)c(OC)c(Br)c1)c1cc(Br)c(OC)c(Br)c1 | > 151 µM | > 151 µM | – |
| O=NC1C2CCC(C2)C1N=O.[Co].[c-]1[c-][c-][cH-][c-]1 (stereo not drawn) | > 200 µM | 49 µM | – |
| CN1c2ccccc2S(=O)(=O)n2c(COc3ccccc3)nnc21 | > 200 µM | > 200 µM | – |
| O=C(COc1ccc(Cl)cc1)N1N=C(c2ccc(Cl)cc2)CC1(O)c1ccccc1 (stereo not drawn) | > 16.2 µM | > 16.2 µM | – |
| CCOC(=O)c1c(-c2ccccc2)c(C)cn1C | > 200 µM | 120 µM | – |
| OC(CCN1CC2CCC(CC2)C1)(Cc1ccccc1)c1cccs1 (stereo not drawn) | > 200 µM | 47.9 µM | – |
| CC(=O)Nc1ccc(S(=O)(=O)c2nnc(NC(C)=O)s2)cc1 | > 741 µM | 331 µM | – |
| C=C(CCC/C(C)=C/C=C/[C@]1(C)CCCc2ccoc21)CC(=O)O | 16.2 µM | > 200 µM | – |
| Cc1cc(S(=O)(=O)N=C2N(Cc3ccccc3)CCN2Cc2ccccc2)c(S)cc1Cl | > 200 µM | > 200 µM | – |
| CC1c2ccccc2NC(=O)N1N1CCOCC1 (stereo not drawn) | > 200 µM | > 200 µM | – |
| COc1cccc2c1C(=O)c1c(O)c3c(c(O)c1C2=O)C[C@@](O)(C(C)=O)C[C@@H]3OC1CC(N(C)C)C(O)C(C)O1 (stereo partly drawn) | – | – | inactive |
| N#CCc1nc(-c2ccccc2)n[nH]1 | > 200 µM | > 200 µM | – |
| COc1ccc2oc3c(C)cc4c(OC)nnc(OC)c4c3c2c1 | > 200 µM | 12.6 µM | – |
| COc1cccc(/C=c2\[nH]c(=O)/c(=C/c3cccc(OC)c3OC)[nH]c2=O)c1OC | > 9.12 µM | > 9.12 µM | – |
| COCCOc1cc(C)cc(/C=C(C)/C=C/C2=C(C)CCCC2(C)C)n1 | – | – | inactive |

| SMILES | EC50 | IC50 | outcome |
| --- | --- | --- | --- |
| CN(C)CCNS(=O)(=O)c1ccc(N)cc1 | > 200 µM | > 200 µM | – |
| CC(C)[Si]([Se]c1ccccc1)(C(C)C)C(C)C | > 21.9 µM | > 21.9 µM | – |
| COc1cc2c(cc1O)[C@@H]1Cc3c(cc(OC)c(OC)c3Oc3cc4c(cc3OC)CCN(C)[C@@H]4Cc3ccc(O)cc3)[C@H](C2)N1C | > 200 µM | 15.5 µM | – |
| O=Cc1c2c(cc3c1CC1(C3)Cc3cc4c(c(C=O)c3C1)CCC4)CCC2 | > 200 µM | 34.7 µM | – |
| O=C1c2c(Br)sc(Br)c2[C@@H](NC(=O)C(F)(F)F)C1Br (stereo partly drawn) | > 200 µM | 3.8 µM | – |
| CC(C)CCC[C@@H](C)C1CCC2[C@@H]3CCC4C[C@H](CCC=C(c5cc(Cl)c(O)c(C(=O)O)c5)c5cc(Cl)c(O)c(C(=O)O)c5)CC[C@]4(C)C3CC[C@@]21C (stereo partly drawn) | 35.5 µM | > 200 µM | – |
| O=C(CCC(=O)Nc1ccc(Cl)c(Cl)c1)CC(=O)c1ccc2ccccc2c1 | – | – | inactive |
| O=NNc1ccc(Sc2ccc(NN=O)cn2)nc1 | > 100 µM | > 100 µM | – |
| COC(=O)CC(SCCO)SCCO | > 200 µM | > 200 µM | – |
| Cc1ccnc(NC(=S)Nc2cccc(Cl)c2)c1 | 57.5 µM | > 200 µM | – |
| Cc1ccc(SSCC(O)C(O)CSSc2ccc(C)cc2)cc1 (stereo not drawn) | – | – | inactive |
| CCOC(=O)/C(=C(\C)N)C1CC(=O)NC1=O (stereo not drawn) | > 200 µM | 107 µM | – |
| Cc1ccc(S(=O)(=O)N/N=C(\CCN2CCCC2)CC(c2ccccc2)c2c(O)c3ccccc3oc2=O)cc1 (stereo not drawn) | > 12 µM | > 12 µM | – |
| N#CC(C#N)=Cc1cccc(C#N)c1 | > 141 µM | 2.45 µM | – |
| OC1(c2ccc(Cl)cc2)c2ccccc2-c2nc3ccccc3n21 (stereo not drawn) | > 200 µM | 174 µM | – |
| CC1NCCc2c1[nH]c1cc(O)ccc21 (stereo not drawn) | > 1050 µM | 158 µM | – |
| CCCCNC(=S)/N=C/c1c(O)cc(C)oc1=O | > 200 µM | > 200 µM | – |
| CCCC/C=C(/C(O)[C@]1(C)OC(=O)N2CCC[C@H]21)[Si](C)(C)C (stereo partly drawn) | > 759 µM | > 759 µM | – |
| CCCCCCCCCCCCCCCCOP(=O)(O)OP(=O)(O)OCC1OC(n2ccc(N)nc2=O)C(O)C1O (stereo not drawn) | 174 µM and > 100 µM | – | – |
| NC(=O)C1c2ccccc2C=Cc2ccccc21 | > 200 µM | 155 µM | – |
| COC(=O)/C=C(\C(=O)OC)c1cc(C)c2cc(C(C)C)ccc(C)c1-2 | > 200 µM | 28.2 µM | – |

| SMILES | EC50 | IC50 | outcome |
| --- | --- | --- | --- |
| Nc1nc2c(ncn2CC2OCC(CO)O2)c(=O)[nH]1 (stereo not drawn) | > 2950 µM | 1820 µM and 275 µM | – |
| Cc1cc2c3c(c1)C(=O)CCN3CCC2=O | – | – | inactive |
| CN1CCC2CCCCN2CC1=O (stereo not drawn) | > 1150 µM | > 1150 µM | – |
| CC(=O)NC1C(OC(C)C(=O)NC(C(=O)NC(CCC(=O)NCCCNC2c3ccccc3Nc3cccc([N+](=O)[O-])c32)C(N)=O)C(C)C)C(O)C(CO)OC1(C)OCc1ccccc1 (stereo not drawn) | > 10 µM | 1.74 µM | – |
| C/C(=N\N(C)C)C(CN1CCCCC1)C(c1ccccc1)c1c(O)c2ccccc2oc1=O (stereo not drawn) | > 69.2 µM | > 69.2 µM | – |
| O=C1C(F)=CC(COC(c2ccccc2)(c2ccccc2)c2ccccc2)OC1n1cc(F)c(=O)[nH]c1=O (stereo not drawn) | > 2 µM | 0.479 µM | – |
| Cn1c(=O)nc2n(-c3cccc(Cl)c3)c3ccccc3nc-2c1=O | – | – | inactive |
| COc1ccc2c(CCNS(=O)(=O)c3ccccc3)c(C(C)=O)[nH]c2c1[N+](=O)[O-] | – | – | inactive |
| O=C(Cn1c2c(c3ccccc31)CCCC2)N1CCCC1 | > 200 µM | > 200 µM | – |
| Nc1ccc(N=Nc2ccc(-c3ccc(O)cc3)cc2)c2ccc(S(=O)(=O)O)cc12 | 7.94 µM | > 200 µM | – |
| CCCCCCCCCCCCCCCCOP(=O)(O)OCCC=C(c1cc(Cl)c(O)c(C(=O)O)c1)c1cc(Cl)c(O)c(C(=O)O)c1 | > 145 µM | 93.3 µM | – |
| CC(C)c1cc(=O)oc2c3c(ccc12)OC(C)(C)[C@H](OC(=O)C12CCC(C)(C(=O)O1)C2(C)C)[C@@H]3OC(=O)C12CCC(C)(C(=O)O1)C2(C)C (stereo partly drawn) | 0.324 µM | 33.9 µM | – |
| C/C=C/CCC1CCCCN(C(=O)OC(C)(C)C)C1OCC (stereo not drawn) | > 60.3 µM | > 60.3 µM | – |
| C=C1C(=O)C23OC2C1CCC(=O)C1(C)CC[C@H](OC(C)=O)C(C)(C)[C@H]1CC3O (stereo partly drawn) | > 200 µM | 1.2 µM | – |
| O=C(NCCCN1CCN(CCCNC(=O)c2cc(-c3ccccc3)nc3ccccc23)CC1)c1cc(-c2ccccc2)nc2ccccc12 | > 20 µM | 2.4 µM | – |
| CC(C)CCC[C@@H](C)[C@H]1CC[C@H]2[C@@H]3CC=C4CC(OCCCCN(O)CCCSC5OC(CO)C(O)C(O)C5O)CC[C@]4(C)[C@H]3CC[C@]12C (stereo partly drawn) | > 200 µM | 35.5 µM | – |
| CC(=O)Nc1c(C#N)c2n(c1C(=O)O)CCC2 | > 200 µM | > 200 µM | – |
| O=C1C(c2ccccc2)=C(c2ccccc2)C(c2ccc(-c3ccc(C4=C(c5ccccc5)C(=O)C(c5ccccc5)=C4c4ccccc4)cc3)cc2)=C1c1ccccc1 | > 3.55 µM | > 3.55 µM | – |
| Cc1ccc(S(=O)(=O)N2CCC3(C(/C=C/c4ccccc4)=Nc4ccccc43)C2c2ccccc2)cc1 (stereo not drawn) | – | – | inactive |
